According to US12264139B2, “Aryl sulfonamides as BLT1 antagonists” (Merck Sharp & Dohme LLC, priority 2015, dated 2025):

target: T1, human BLT1 receptor (Homo sapiens, UniProt Q15722); assay: BLT-1 cAMP Assay; format: cell-based; details: HEK293 cells recombinantly expressing human BLT1; antagonist activity vs forskolin 4 μM and LTB4 2 nM; cAMP (CisBio kit)
T1 construct: expressed in transfected cells; host or cells: HEK293
Description: The ability of compounds to antagonize the human BLT1 receptor was determined using a kit to measure changes in intracellular cyclic AMP levels (cAMP dynamic assay kit, Cisbio Cat. No. 62AM4PEC). […] The cell suspension was centrifuged at 200×g for 10 min and then resuspended in fresh assay medium to a density of 2.5×10^5 cells/mL. […] All subsequent liquid additions were performed using a BIORAPTR (FRD; Beckman Coulter). Next, 5 μL of cell suspension was added and incubated for 20 min. at 37° C. and 5% CO2 in a humidified plastic tray.
The levels of cAMP were detected using the CisBio kit following the manufacturer's instructions: cAMP-d2 vial was reconstituted with distilled water and then diluted accordingly with conjugate & lysis buffer. 5 µL of cAMP-d2 working solution was added to all of the wells of the assay plate. cAMP-Cryptate vial was reconstituted with distilled water and then diluted accordingly with conjugate & lysis buffer. 5 µL of cAMP-Cryptate working solution were added to the assay plate. The assay plate was shaken for 3 minutes and incubated at room temperature for 45 minutes, then read on Perkin Elmer Envision. cAMP standard curve and fit data were plotted using a 4 parameter dose response curve fitting algorithm to fit curve. […] After normalization to treated and untreated controls, the percent effect of signal at each compound concentration was calculated. The plot of percent effect versus the log of compound concentration was fit with a 4-parameter concentration response equation to calculate EC50 values.

T1 sequence (Q15722 whole entry): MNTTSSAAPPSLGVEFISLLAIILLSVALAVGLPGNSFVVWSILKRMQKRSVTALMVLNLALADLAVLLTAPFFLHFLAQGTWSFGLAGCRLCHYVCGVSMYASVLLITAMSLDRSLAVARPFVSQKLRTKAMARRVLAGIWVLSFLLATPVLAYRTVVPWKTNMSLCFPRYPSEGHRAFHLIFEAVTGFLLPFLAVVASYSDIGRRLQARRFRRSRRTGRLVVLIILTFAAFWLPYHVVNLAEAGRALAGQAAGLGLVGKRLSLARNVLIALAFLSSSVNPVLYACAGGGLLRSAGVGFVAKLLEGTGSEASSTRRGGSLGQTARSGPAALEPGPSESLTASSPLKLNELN

Row | SMILES | EC50
1 | CS(=O)(=O)Nc1ccccc1-c1ccc2c(c1)OCC(Cc1ccccn1)C2O (racemic) [Example 30, N-(2-((3,4-Rac-trans)-4-hydroxy-3-(pyridin-2-ylmethyl)chroman-7-yl)phenyl)methanesulfonamide] | 414 nM
2 | O=S(=O)(Nc1ccccc1-c1ccc2c(c1)OC[C@@H](Cc1cscn1)[C@H]2O)C(F)(F)F (racemic) [Example 31, 1,1,1-trifluoro-N-(2-(3,4-rac-cis)-4-hydroxy-3-(thiazol-4-ylmethyl)chroman-7-yl)phenyl)methanesulfonamide] | 1370 nM
3 | Cn1nc(-c2ccccc2)cc1C[C@H]1COc2cc(-c3ccccc3NS(=O)(=O)C(F)(F)F)ccc2[C@@H]1O (racemic) [Example 35, 1,1,1-Trifluoro-N-(2-((rac-trans)-4-hydroxy-3-((1-methyl-3-phenyl-1H-pyrazol-5-yl)methyl)chroman-7-yl)phenyl)methanesulfonamide] | 824 nM
4 | O=S(=O)(Nc1nccnc1-c1ccc2c(c1)OCC(Cc1ccccn1)C2O)C(F)(F)F (racemic) [Example 74, 1,1,1-Trifluoro-N-(3-((3,4-rac-trans)-4-hydroxy-3-(pyridin-2-ylmethyl)chroman-7-yl)pyrazin-2-yl)methanesulfonamide] | 4050 nM
5 | O=S(=O)(Nc1ccccc1-c1ccc2c(c1)OC[C@@H](Cc1nnc(-c3ccc(F)cc3)o1)[C@@H]2O)C(F)(F)F (relative stereo) [Example 44, 1,1,1-Trifluoro-N-(2-((3,4-trans)-3-((5-(4-fluorophenyl)-1,3,4-oxadiazol-2-yl)methyl)-4-hydroxychroman-7-yl)phenyl)methanesulfonamide] | 1550 nM
6 | CC(C)(C)c1nc(C[C@@H]2COc3cc(-c4ccccc4NS(=O)(=O)C(F)(F)F)ccc3[C@H]2O)cs1 (relative stereo) [Example 45, N-(2-((3,4-trans)-3-((2-(tert-butyl)thiazol-4-yl)methyl)-4-hydroxychroman-7-yl)phenyl)-1,1,1-trifluoromethanesulfonamide] | 1430 nM
7 | O=S(=O)(Nc1ccccc1-c1ccc2c(c1)OC[C@@H](Cc1ccncc1)[C@@H]2O)C(F)(F)F (single isomer, unassigned) [Example 25, 1,1,1-trifluoro-N-{2-[(3R,4S or 3S,4R)-4-hydroxy-3-(pyridin-4-ylmethyl)-3,4-dihydro-2H-chromen-7-yl]phenyl}methanesulfonamide] | 412 nM
8 | Cn1nc(-c2ccccc2)cc1C[C@H]1COc2cc(-c3ccccc3NS(=O)(=O)C(F)(F)F)ccc2[C@@H]1O (single isomer, unassigned) [Example 36, 1,1,1-Trifluoro-N-(2-((3S,4R or 3R,4S)-4-hydroxy-3-((1-methyl-3-phenyl-1H-pyrazol-5-yl)methyl)chroman-7-yl)phenyl)methanesulfonamide] | 737 nM
9 | Cn1nc(-c2ccccc2)cc1C[C@@H]1COc2cc(-c3ccccc3NS(=O)(=O)C(F)(F)F)ccc2[C@H]1O (single isomer, unassigned) [Example 37, 1,1,1-Trifluoro-N-(2-((3R,4S or 3S,4R)-4-hydroxy-3-((1-methyl-3-phenyl-1H-pyrazol-5-yl)methyl)chroman-7-yl)phenyl)methanesulfonamide] | 754 nM
10 | O=S(=O)(Nc1ccccc1-c1ccc2c(c1)OC[C@@H](Cc1cnc(-c3ccccc3)s1)[C@@H]2O)C(F)(F)F (single isomer, unassigned) [Example 42, 1,1,1-Trifluoro-N-(2-((3S,4R or 3R,4S)-4-hydroxy-3-((2-phenylthiazol-5-yl)methyl)chroman-7-yl)phenyl)methanesulfonamide] | 445 nM
11 | CCn1ccc(C[C@@H]2COc3cc(-c4ccccc4NS(=O)(=O)C(F)(F)F)ccc3[C@H]2O)n1 (single isomer, unassigned) [Example 47, N-(2-((3R,4S or 3S,4R)-3-((1-ethyl-1H-pyrazol-3-yl)methyl)-4-hydroxychroman-7-yl)phenyl)-1,1,1-trifluoromethanesulfonamide] | 1200 nM
12 | O=S(=O)(Nc1ccccc1-c1ccc2c(c1)OC[C@@H](Cc1cscn1)[C@@H]2O)C(F)(F)F (single isomer, unassigned) [Example 51, 1,1,1-trifluoro-N-{2-[(3S,4R or 3R,4S)-4-hydroxy-3-(1,3-thiazol-4-ylmethyl)-3,4-dihydro-2H-chromen-7-yl]phenyl}-methanesulfonamide] | 808 nM
13 | Cc1cnc(C[C@@H]2COc3cc(-c4ccccc4NS(=O)(=O)C(F)(F)F)ccc3[C@H]2O)s1 (single isomer, unassigned) [Example 52, 1,1,1-trifluoro-N-(2-{(3S,4R or 3R,4S)-4-hydroxy-3-[(5-methyl-1,3-thiazol-2-yl)methyl]-3,4-dihydro-2H-chromen-7-yl}phenyl)methanesulfonamide] | 4040 nM

The next compounds have a lower EC50 than those just listed; values first:

Row | EC50 | SMILES
14 | 17 nM | O=S(=O)(Nc1ccccc1-c1ccc2c(c1)OC[C@@H](Cc1cscn1)[C@@H]2O)C(F)(F)F (racemic) [Example 32, 1,1,1-trifluoro-N-(2-((3,4-rac-trans)-4-hydroxy-3-(thiazol-4-ylmethyl)chroman-7-yl)phenyl)methanesulfonamide]
15 | 53 nM | O=S(=O)(Nc1ccccc1-c1ccc2c(c1)OCC(Cc1cccs1)C2O)C(F)(F)F (racemic) [Example 33, 1,1,1-Trifluoro-N-(2-((3,4-rac-trans)-4-hydroxy-3-(thiophen-2-ylmethyl)chroman-7-yl)phenyl)methanesulfonamide]
16 | 44 nM | O=S(=O)(Nc1ccccc1-c1ccc2c(c1)OCC(Cc1cc3ccccc3s1)C2O)C(F)(F)F (racemic) [Example 34, N-(2-((3,4-rac-trans)-3-(benzo[b]thiophen-2-ylmethyl)-4-hydroxychroman-7-yl)phenyl)-1,1,1-trifluoromethanesulfonamide]
17 | 4 nM | O=S(=O)(Nc1ccccc1-c1ccc2c(c1)OC[C@@H](Cc1ccc(-c3ccccc3)cn1)[C@@H]2O)C(F)(F)F (racemic) [Example 38, 1,1,1-Trifluoro-N-(2-{(rac-trans)-4-hydroxy-3-((5-phenylpyridin-2-yl)methyl)chroman-7-yl)phenyl)methanesulfonamide]
18 | 225 nM | O=S(=O)(Nc1ccccc1-c1ccc2c(c1)OC[C@@H](Cc1cnc(-c3ccccc3)s1)[C@@H]2O)C(F)(F)F (racemic) [Example 41, 1,1,1-Trifluoro-N-(2-((rac-trans)-4-hydroxy-3-((2-phenylthiazol-5-yl)methyl)chroman-7-yl)phenyl)methanesulfonamide]
19 | 121 nM | O=S(=O)(Nc1ccccc1-c1ccc2c(c1)OC[C@H](Cc1ccncc1)[C@H]2O)C(F)(F)F (single isomer, unassigned) [Example 26, 1,1,1-trifluoro-N-{2-[(3S,4R or 3R,4S)-4-hydroxy-3-(pyridin-4-ylmethyl)-3,4-dihydro-2H-chromen-7-yl]phenyl}methanesulfonamide]
20 | 1 nM | O=S(=O)(Nc1ccccc1-c1ccc2c(c1)OC[C@H](Cc1ccc(-c3ccccc3)cn1)[C@H]2O)C(F)(F)F (single isomer, unassigned) [Example 39, (2-((3S,4R or 3R,4S)-4-hydroxy-3-((5-phenylpyridin-2-yl)methyl)chroman-7-yl)phenyl)((trifluoromethyl)sulfonyl)amide]
21 | 18 nM | O=S(=O)(Nc1ccccc1-c1ccc2c(c1)OC[C@@H](Cc1ccc(-c3ccccc3)cn1)[C@@H]2O)C(F)(F)F (single isomer, unassigned) [Example 40, (2-((3R,4S or 3S,4R)-4-hydroxy-3-((5-phenylpyridin-2-yl)methyl)chroman-7-yl)phenyl)((trifluoromethyl)sulfonyl)amide]
22 | 64 nM | O=S(=O)(Nc1ccccc1-c1ccc2c(c1)OC[C@H](Cc1cnc(-c3ccccc3)s1)[C@H]2O)C(F)(F)F (single isomer, unassigned) [Example 43, 1,1,1-Trifluoro-N-(2-((3R,4S or 3S,4R)-4-hydroxy-3-((2-phenylthiazol-5-yl)methyl)chroman-7-yl)phenyl)methanesulfonamide]
23 | 157 nM | CCn1ccc(C[C@H]2COc3cc(-c4ccccc4NS(=O)(=O)C(F)(F)F)ccc3[C@@H]2O)n1 (single isomer, unassigned) [Example 46, N-(2-((3S,4R or 3R,4S)-3-((1-ethyl-1H-pyrazol-3-yl)methyl)-4-hydroxychroman-7-yl)phenyl)-1,1,1-trifluoromethanesulfonamide]
24 | 29 nM | O=S(=O)(Nc1ccccc1-c1ccc2c(c1)OC[C@H](Cc1cscn1)[C@H]2O)C(F)(F)F (single isomer, unassigned) [Example 50, 1,1,1-trifluoro-N-{2-[(3R,4S or 3S,4R)-4-hydroxy-3-(1,3-thiazol-4-ylmethyl)-3,4-dihydro-2H-chromen-7-yl]phenyl}-methanesulfonamide]
25 | 69 nM | Cc1cnc(C[C@H]2COc3cc(-c4ccccc4NS(=O)(=O)C(F)(F)F)ccc3[C@@H]2O)s1 (single isomer, unassigned) [Example 53, 1,1,1-trifluoro-N-(2-{(3R,4S or 3S,4R)-4-hydroxy-3-[(5-methyl-1,3-thiazol-2-yl)methyl]-3,4-dihydro-2H-chromen-7-yl}phenyl)methanesulfonamide]
